Here are results for six cell lines from the supplement of paper PMC10307832.

Common to all, as to assay: relative viability (nuclei count vs DMSO), 5 days (fraction); higher = more cells survive
Compound in assay [1]: C/C(=N\NC(=S)N1CCC1)/C2=CC=CC=N2 + CC(=O)Nc1cccc(-n2c(=O)n(C3CC3)c(=O)c3c(Nc4ccc(I)cc4F)n(C)c(=O)c(C)c32)c1 [Trametinib] (partner 0.02 µM)
The essentials:
(§1)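 Values are medians from duplicate plates. Each reflects relative viability, defined as the nuclei count of treated wells over that of vehicle wells. Lung cancer cell lines in 1536-well plates were pin-tool dosed one day after seeding with one drug alone or with a fixed anchor-drug dose plus five library-drug doses (not always all listed) in √10 steps, then fixed, stained and imaged at 4× after 5 days.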

Compound in assay [2]: C/C(=N\NC(=S)N1CCC1)/C2=CC=CC=N2 + N=C(N)NC(=N)NCCc1ccccc1 [Phenformin] (partner 250 µM)
The essentials:
as §1

Compound in assay [3]: C/C(=N\NC(=S)N1CCC1)/C2=CC=CC=N2 + Nc1nc2[nH]cc(CCc3ccc(C(=O)N[C@@H](CCC(=O)O)C(=O)O)cc3)c2c(=O)[nH]1 [Pemetrexed] (partner 0.2 µM)
In short, it runs like this: as §1

Compound in assay [4]: C/C(=N\NC(=S)N1CCC1)/C2=CC=CC=N2 + CC1(C)CCC(c2ccc(Cl)cc2)=C(CN2CCN(c3ccc(C(=O)NS(=O)(=O)c4ccc(N[C@H](CCN5CCOCC5)CSc5ccccc5)c(S(=O)(=O)C(F)(F)F)c4)cc3)CC2)C1 [Navitoclax] (partner 0.5 µM)
The essentials: as §1

For NCI-H2347, the relative viability in assay [1] (first compound 0.05 µM) amounted to 0.247; in assay [1] (first compound 0.1581 µM), 0.271; in assay [1] (first compound 0.5 µM), 0.244; in assay [1] (first compound 1.581 µM), 0.294; in assay [1] (first compound 5 µM), 0.227; in assay [2] (first compound 0.05 µM), 0.159. Further, the relative viability in assay [2] (first compound 0.1581 µM) was found to be 0.195; in assay [2] (first compound 0.5 µM) it was 0.202; in assay [2] (first compound 1.581 µM) it was 0.208; in assay [2] (first compound 5 µM), 0.273; in assay [3] (first compound 0.05 µM) it was 0.33; in assay [3] (first compound 0.1581 µM), 0.308. Moreover, the relative viability in assay [3] (first compound 0.5 µM) was 0.3; in assay [3] (first compound 1.581 µM) it was 0.27; in assay [3] (first compound 5 µM) it was 0.291; in assay [4] (first compound 0.05 µM), 0.214; in assay [4] (first compound 0.1581 µM), 0.263; in assay [4] (first compound 0.5 µM), 0.195. Moreover, the relative viability turned out to be 0.16 in assay [4] (first compound 1.581 µM) and 0.193 in assay [4] (first compound 5 µM).

Take NCI-H2126: the relative viability in assay [1] (first compound 0.05 µM) is 0.299; in assay [1] (first compound 0.1581 µM), 0.574; in assay [1] (first compound 0.5 µM) it was 0.189; in assay [1] (first compound 1.581 µM), 0.183; in assay [1] (first compound 5 µM), 0.23; in assay [2] (first compound 0.05 µM), 0.396. The relative viability in assay [2] (first compound 0.1581 µM) turned out to be 0.407; in assay [2] (first compound 0.5 µM), 0.364; in assay [2] (first compound 1.581 µM), 0.316; in assay [2] (first compound 5 µM), 0.381; in assay [3] (first compound 0.05 µM) it was 0.235; in assay [3] (first compound 0.1581 µM) it was 0.221. Further, the relative viability was 0.212 in assay [3] (first compound 0.5 µM); 0.219 in assay [3] (first compound 1.581 µM); 0.208 in assay [3] (first compound 5 µM); 0.328 in assay [4] (first compound 0.05 µM); 0.828 in assay [4] (first compound 0.1581 µM); 0.265 in assay [4] (first compound 0.5 µM). Also, the relative viability turned out to be 0.281 in assay [4] (first compound 1.581 µM) and 0.27 in assay [4] (first compound 5 µM).

As to HCC-827, the relative viability in assay [1] (first compound 0.05 µM) is 0.377; in assay [1] (first compound 0.1581 µM), 0.269; in assay [1] (first compound 0.5 µM), 0.211; in assay [1] (first compound 1.581 µM), 0.214; in assay [1] (first compound 5 µM), 0.176; in assay [2] (first compound 0.05 µM) it was 0.222. The relative viability in assay [2] (first compound 0.1581 µM) stood at 0.239; in assay [2] (first compound 0.5 µM) it was 0.201; in assay [2] (first compound 1.581 µM), 0.173; in assay [2] (first compound 5 µM) it was 0.175; in assay [3] (first compound 0.05 µM), 0.224; in assay [3] (first compound 0.1581 µM), 0.225. Moreover, the relative viability came to 0.259 in assay [3] (first compound 0.5 µM); 0.152 in assay [3] (first compound 1.581 µM); 0.171 in assay [3] (first compound 5 µM); 0.639 in assay [4] (first compound 0.05 µM); 1.02 in assay [4] (first compound 0.1581 µM); 0.308 in assay [4] (first compound 0.5 µM). The relative viability turned out to be 0.273 in assay [4] (first compound 1.581 µM) and 0.241 in assay [4] (first compound 5 µM).

Regarding NCI-H3122, the relative viability in assay [1] (first compound 0.05 µM) was 0.0866; in assay [1] (first compound 0.1581 µM), 0.159; in assay [1] (first compound 0.5 µM), 0.0947; in assay [1] (first compound 1.581 µM), 0.116; in assay [1] (first compound 5 µM) it was 0.125; in assay [2] (first compound 0.05 µM), 0.0982. The relative viability in assay [2] (first compound 0.1581 µM) was found to be 0.0876; in assay [2] (first compound 0.5 µM), 0.119; in assay [2] (first compound 1.581 µM), 0.128; in assay [2] (first compound 5 µM) it was 0.124; in assay [3] (first compound 0.05 µM), 0.0953; in assay [3] (first compound 0.1581 µM), 0.11. In addition, the relative viability in assay [3] (first compound 0.5 µM) worked out at 0.11; in assay [3] (first compound 1.581 µM) it was 0.149; in assay [3] (first compound 5 µM), 0.15; in assay [4] (first compound 0.05 µM) it was 0.132; in assay [4] (first compound 0.1581 µM) it was 0.137; in assay [4] (first compound 0.5 µM) it was 0.156. Moreover, the relative viability is 0.247 in assay [4] (first compound 1.581 µM) and 0.216 in assay [4] (first compound 5 µM).

In the case of HOP-62, the relative viability turned out to be 0.216 in assay [1] (first compound 0.05 µM); 0.212 in assay [1] (first compound 0.1581 µM); 0.112 in assay [1] (first compound 0.5 µM); 0.131 in assay [1] (first compound 1.581 µM); 0.112 in assay [1] (first compound 5 µM); 0.0721 in assay [2] (first compound 0.05 µM). The relative viability came to 0.0624 in assay [2] (first compound 0.1581 µM); 0.0719 in assay [2] (first compound 0.5 µM); 0.0958 in assay [2] (first compound 1.581 µM); 0.0779 in assay [2] (first compound 5 µM); 0.0662 in assay [3] (first compound 0.05 µM); 0.0706 in assay [3] (first compound 0.1581 µM). In addition, the relative viability in assay [3] (first compound 0.5 µM) worked out at 0.0806; in assay [3] (first compound 1.581 µM), 0.128; in assay [3] (first compound 5 µM) it was 0.0892; in assay [4] (first compound 0.05 µM), 0.169; in assay [4] (first compound 0.1581 µM), 0.0748; in assay [4] (first compound 0.5 µM), 0.0823. In addition, the relative viability in assay [4] (first compound 1.581 µM) stood at 0.104; in assay [4] (first compound 5 µM) it was 0.0618.

For the cell line HCC-44, the relative viability was 0.869 in assay [1] (first compound 0.05 µM); 0.987 in assay [1] (first compound 0.1581 µM); 0.409 in assay [1] (first compound 0.5 µM); 0.491 in assay [1] (first compound 1.581 µM); 0.397 in assay [1] (first compound 5 µM); 0.0955 in assay [2] (first compound 0.05 µM). Moreover, the relative viability worked out at 0.14 in assay [2] (first compound 0.1581 µM); 0.0915 in assay [2] (first compound 0.5 µM); 0.153 in assay [2] (first compound 1.581 µM); 0.188 in assay [2] (first compound 5 µM); 0.599 in assay [3] (first compound 0.05 µM); 0.52 in assay [3] (first compound 0.1581 µM). The relative viability worked out at 0.549 in assay [3] (first compound 0.5 µM); 0.547 in assay [3] (first compound 1.581 µM); 0.424 in assay [3] (first compound 5 µM); 0.782 in assay [4] (first compound 0.05 µM); 0.311 in assay [4] (first compound 0.1581 µM); 0.194 in assay [4] (first compound 0.5 µM). Also, the relative viability was determined as 0.222 in assay [4] (first compound 1.581 µM) and 0.258 in assay [4] (first compound 5 µM).
